This test concerns the target T1, Recombinant human His6-USP1/His6-UAF1 complex protein (Homo sapiens, UniProt O94782).
T1 construct: His6; purchased R&D E-568-050
As to the kind of experiment: In vitro inhibitory activity against USP1 (Ubiquitin Rhodamine 110 fluorescence detection, 384-well plate). Type of test: biochemical. The note with it: Ub-Rho substrate, 1 hour pre-incubation, read after 30 minutes. The procedure:
Test Example 1: In vitro inhibitory activity against USP1 […]
Experimental object: to screen compounds with inhibitory activity against USP1 […] by a fluorescence detection method, using a 384-well plate.
Experimental materials: Recombinant human His6-USP1/His6-UAF1 complex protein (R&D, Cat. No.: E-568-050), Ubiquitin Rhodamine 110 protein (Ub-Rho) (R&D, Cat. No.: U-555-050), 384-well plate (Perkin Elmer, Cat. No.: 6007279); all compounds were dissolved in 100% DMSO to obtain 50 mM stock solutions.
• 1) Preparation of 1 × assay buffer: 1 × assay buffer (modified Tris buffer) was prepared; • 2) Dilution of compounds: the compounds were transferred to an assay plate via Echo.
T1 sequence (O94782 whole entry): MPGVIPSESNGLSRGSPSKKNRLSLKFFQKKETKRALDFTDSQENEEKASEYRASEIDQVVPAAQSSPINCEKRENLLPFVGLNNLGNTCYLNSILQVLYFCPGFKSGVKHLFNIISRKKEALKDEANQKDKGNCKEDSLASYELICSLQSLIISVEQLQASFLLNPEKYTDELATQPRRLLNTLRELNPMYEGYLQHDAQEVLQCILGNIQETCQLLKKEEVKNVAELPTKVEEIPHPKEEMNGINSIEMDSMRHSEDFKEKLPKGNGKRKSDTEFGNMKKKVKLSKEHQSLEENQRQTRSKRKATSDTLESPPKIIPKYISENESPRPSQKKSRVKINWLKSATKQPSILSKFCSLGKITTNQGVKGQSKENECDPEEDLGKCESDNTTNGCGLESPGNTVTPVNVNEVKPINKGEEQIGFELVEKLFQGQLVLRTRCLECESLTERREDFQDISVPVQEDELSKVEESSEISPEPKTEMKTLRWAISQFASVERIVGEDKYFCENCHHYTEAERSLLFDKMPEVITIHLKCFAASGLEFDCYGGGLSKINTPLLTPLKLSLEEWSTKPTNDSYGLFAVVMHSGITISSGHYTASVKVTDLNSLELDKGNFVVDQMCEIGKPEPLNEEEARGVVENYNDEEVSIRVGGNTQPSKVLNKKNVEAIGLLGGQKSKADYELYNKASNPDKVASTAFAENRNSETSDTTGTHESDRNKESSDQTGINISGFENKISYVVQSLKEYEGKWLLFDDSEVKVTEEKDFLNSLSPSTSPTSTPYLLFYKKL
T1 sequence (Q8TAF3 whole entry partner): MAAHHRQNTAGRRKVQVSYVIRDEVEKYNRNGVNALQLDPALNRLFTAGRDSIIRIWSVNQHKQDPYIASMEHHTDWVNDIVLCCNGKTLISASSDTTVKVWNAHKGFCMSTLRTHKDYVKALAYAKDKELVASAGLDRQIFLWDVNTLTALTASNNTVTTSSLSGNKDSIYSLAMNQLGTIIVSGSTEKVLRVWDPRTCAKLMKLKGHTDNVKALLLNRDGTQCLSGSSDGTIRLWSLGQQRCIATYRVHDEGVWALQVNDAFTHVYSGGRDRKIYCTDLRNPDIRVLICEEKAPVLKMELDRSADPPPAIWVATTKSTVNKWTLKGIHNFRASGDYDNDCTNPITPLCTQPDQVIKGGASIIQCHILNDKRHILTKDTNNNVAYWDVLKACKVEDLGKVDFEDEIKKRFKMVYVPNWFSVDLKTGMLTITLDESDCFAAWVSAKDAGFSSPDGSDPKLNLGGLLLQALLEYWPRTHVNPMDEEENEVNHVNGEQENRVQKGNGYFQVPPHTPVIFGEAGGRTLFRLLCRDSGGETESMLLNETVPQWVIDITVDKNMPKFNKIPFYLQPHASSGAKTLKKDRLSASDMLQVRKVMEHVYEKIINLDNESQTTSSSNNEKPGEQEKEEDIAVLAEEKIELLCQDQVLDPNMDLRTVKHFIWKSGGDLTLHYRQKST
The term IC50 denotes the midpoint of a concentration-inhibition curve. For `COc1ncnc(C2CC2)c1-c1nc(NCc2ccc3c(c2)CCN(C)C3=O)c2occc2n1` [Example 114, 6-(((2-(4-Cyclopropyl-6-methoxypyrimidin-5-yl)furo[3,2-d]pyrimidin-4-yl)amino)methyl)-2-methyl-3,4-dihydroisoquinolin-1(2H)-one], the IC50 worked out at 648 nM. As for `COc1ncnc(C2CC2)c1-c1nc(NCc2ccc3c(c2)CCN(C(C)C)C3=O)c2occc2n1` [Example 115, 6-(((2-(4-Cyclopropyl-6-methoxypyrimidin-5-yl)furo[3,2-d]pyrimidin-4-yl)amino)methyl)-2-isopropyl-3,4-dihydroisoquinolin-1(2H)-one], the figure is 77 nM. As for `COc1ncnc(C2CC2)c1-c1nc(NCc2ccc(OC3CC(OC)C3)cc2)c2occc2n1` (centres unmarked) [Example 118, 2-(4-Cyclopropyl-6-methoxypyrimidin-5-yl)-N-(4-(3-methoxycyclobutoxy)benzyl)furo[3,2-d]pyrimidin-4-amine], the figure is 58 nM; as for `COc1cnc(-c2c(OC)ncnc2C2CC2)nc1N(Cc1ccc(-c2nc(C(F)(F)F)cn2C)cc1)C1CCOC1` (centres unmarked) [Example 140, 4'-Cyclopropyl-5,6'-dimethoxy-N-(4-(1-methyl-4-(trifluoromethyl)-1H-imidazol-2-yl)benzyl)-N-(tetrahydrofuran-3-yl)-[2,5'-bipyrimidin]-4-amine], 73 nM.

Take `COc1cnc(-c2cccc3ccn(C)c23)nc1NCc1ccc(-c2nc(C(F)(F)F)cn2C)cc1` [Example 143, 5-Methoxy-2-(1-methyl-1H-indol-7-yl)-N-(4-(1-methyl-4-(trifluoromethyl)-1H-imidazol-2-yl)benzyl)pyrimidin-4-amine]: the IC50 was found to be 31 nM. Regarding `COc1cnc(-c2cccc3ccn(C)c23)nc1NCc1ccc(-n2nc(C(F)(F)F)cc2C)cc1` [Example 144, 5-Methoxy-2-(1-methyl-1H-indol-7-yl)-N-(4-(5-methyl-3-(trifluoromethyl)-1H-pyrazol-1-yl)benzyl)pyrimidin-4-amine], the IC50 is 68.6 nM. As for `COc1cnc(-c2cccc3c2N(C)CC3)nc1NCc1ccc(-n2nc(C(F)(F)F)cc2C)cc1` [Example 146], the figure is 18 nM. `COc1cnc(-c2c(C)ncn2C(C)C)nc1NCc1ccc(-c2nc(C(F)(F)F)cn2C)cc1` [Example 147, 2-(1-Isopropyl-4-methyl-1H-imidazol-5-yl)-5-methoxy-N-(4-(1-methyl-4-(trifluoromethyl)-1H-imidazol-2-yl)benzyl)pyrimidin-4-amine]: the IC50 amounted to 364 nM. As for `Cc1ncn(C(C)C)c1-c1nc(NCc2ccc(-c3nc(C(F)(F)F)cn3C)cc2)c2occc2n1` [Example 149, 2-(1-Isopropyl-4-methyl-1H-imidazol-5-yl)-N-(4-(1-methyl-4-(trifluoromethyl)-1H-imidazol-2-yl)benzyl)furo[3,2-d]pyrimidin-4-amine], the figure is 69.2 nM; as for `Cc1ncn(C(C)C)c1-c1nc(NCC23CCC(c4ccc(C(F)(F)F)cn4)(CC2)CC3)c2occc2n1` [Example 150, 2-(1-Isopropyl-4-methyl-1H-imidazol-5-yl)-N-((4-(5-(trifluoromethyl)pyridin-2-yl)bicyclo[2.2.2]octan-1-yl)methyl)furo[3,2-d]pyrimidin-4-amine], 431 nM. Turning to `COc1cnc(-c2c(OC)cnn2C(C)C)nc1N(C)CC1CCN(c2ccccn2)CC1` [Example 177, 2-(1-Isopropyl-4-methoxy-1H-pyrazol-5-yl)-5-methoxy-N-methyl-N-((1-(pyridin-2-yl)piperidin-4-yl)methyl)pyrimidin-4-amine], the IC50 came out at 75 nM. As for `COc1cnc(-c2c(OC)cnn2C(C)C)nc1NCc1ccc(-c2ccccn2)cc1` [Example 178, 2-(1-Isopropyl-4-methoxy-1H-pyrazol-5-yl)-5-methoxy-N-(4-(pyridin-2-yl)benzyl)pyrimidin-4-amine], the figure is 110 nM. As for `COc1cnn(C(C)C)c1-c1nc(NCc2ccc(-c3ccccn3)cc2)c2occc2n1` [Example 181, 2-(1-Isopropyl-4-methoxy-1H-pyrazol-5-yl)-N-(4-(pyridin-2-yl)benzyl)furo[3,2-d]pyrimidin-4-amine], the figure is 27 nM. As for `COc1cnc(-c2c(OC)cnn2C2CC2)nc1NCc1ccc(-c2ccccn2)cc1` [Example 183, 2-(1-Cyclopropyl-4-methoxy-1H-pyrazol-5-yl)-5-methoxy-N-(4-(pyridin-2-yl)benzyl)pyrimidin-4-amine], the figure is 164 nM; as for `COc1cnc(-c2c(OC)cnn2C2CC2)nc1NCC1CCN(c2nc(C(F)(F)F)cn2C)CC1` [Example 184, 2-(1-Cyclopropyl-4-methoxy-1H-pyrazol-5-yl)-5-methoxy-N-((1-(1-methyl-4-(trifluoromethyl)-1H-imidazol-2-yl)piperidin-4-yl)methyl)pyrimidin-4-amine], 94 nM. For the molecule `COc1cnc(-c2c(C)noc2C(C)C)nc1N(C)CC1CCN(c2ccccn2)CC1` [Example 186, 2-(5-Isopropyl-3-methylisoxazol-4-yl)-5-methoxy-N-methyl-N-((1-(pyridin-2-yl)piperidin-4-yl)methyl)pyrimidin-4-amine], the IC50 came to 66 nM.

With `COc1cnc(-c2c(C)noc2C(C)C)nc1NCC1CCN(c2nc(C(F)(F)F)cn2C)CC1` [Example 187, 2-(5-Isopropyl-3-methylisoxazol-4-yl)-5-methoxy-N-((1-(1-methyl-4-(trifluoromethyl)-1H-imidazol-2-yl)piperidin-4-yl)methyl)pyrimidin-4-amine], the IC50 amounted to 23.5 nM. For the molecule `COc1cnc(-c2c(C)noc2C(C)C)nc1NCc1ccc(-c2nc(C(F)(F)F)cn2C)cc1` [Example 188, 2-(5-Isopropyl-3-methylisoxazol-4-yl)-5-methoxy-N-(4-(1-methyl-4-(trifluoromethyl)-1H-imidazol-2-vl)benzyl)pyrimidin-4-amine], the 50% inhibitory concentration (IC50) was 15 nM. On to `COc1cnc(-c2cncnc2C2CC2)nc1N(C)Cc1ccc(-c2nc(C(F)(F)F)cn2C)cc1` [Example 193, 4'-Cyclopropyl-5-methoxy-N-methyl-N-(4-(1-methyl-4-(trifluoromethyl)-1H-imidazol-2-yl)benzyl)-[2,5'-bipyrimidin]-4-amine], for which the IC50 is 87 nM. As for `COc1cnc(-c2cncnc2C2CC2)nc1NCc1ccc(-c2nc(C(F)F)cn2C)cc1` [Example 195, 4'-Cyclopropyl-N-(4-(4-(difluoromethyl)-1-methyl-1H-imidazol-2-yl)benzyl)-5-methoxy-[2,5'-bipyrimidin]-4-amine], the figure is 243 nM. As for `Cn1cc(C(F)F)nc1-c1ccc(CNc2nc(-c3cncnc3C3CC3)nc3ccoc23)cc1` [Example 197, 2-(4-Cyclopropylpyrimidin-5-yl)-N-(4-(4-(difluoromethyl)-1-methyl-1H-imidazol-2-yl)benzyl)furo[3,2-d]pyrimidin-4-amine], the figure is 133 nM; as for `COc1cnc(-c2c(C)cnn2C2CC2)nc1N(O)Cc1ccc(-c2nc(C(F)(F)F)cn2C)cc1` [Example 205, N-(2-(1-cyclopropyl-4-methyl-1H-pyrazol-5-yl)-5-methoxypyrimidin-4-yl)-N-(4-(1-methyl-4-(trifluoromethyl)-1H-imidazol-2-yl)benzyl)hydroxylamine], 43 nM.

For `COc1cnc(-c2c(OC)ncnc2C2CC2)nc1N(C#N)Cc1ccc(-c2nc(C(F)(F)F)cn2C)cc1` [Example 206, N-(4'-cyclopropyl-5,6'-dimethoxy-[2,5'-bipyrimidin]-4-yl)-N-(4-(1-methyl-4-(trifluoromethyl)-1H-imidazol-2-yl)benzyl)cyanamide], the IC50 was found to be 3.5 nM.

Regarding `COc1cnc(-c2c(Cl)cnn2C(C)C)nc1N(C)CC12CCC(c3nc(C(F)(F)F)cn3C)(CC1)OC2` [Example 211, 2-(4-chloro-1-isopropyl-1H-pyrazol-5-yl)-5-methoxy-N-methyl-N-((1-(1-methyl-4-(trifluoromethyl)-1H-imidazol-2-yl)-2-oxabicyclo [2.2.2]octan-4-yl)methyl)pyrimidin-4-amine], the IC50 turned out to be 6.1 nM. As for `COc1cnc(-c2c(OC)ncnc2C2CC2)nc1N(C)CC12CCC(c3nc(C(F)(F)F)cn3C)(CC1)OC2` [Example 212, 4'-cyclopropyl-5,6'-dimethoxy-N-methyl-N-((1-(1-methyl-4-(trifluoromethyl)-1H-imidazol-2-yl)-2-oxabicyclo[2.2.2]octan-4-yl)methyl)-[2,5'-bipyrimidin]-4-amine], the figure is 19 nM; as for `[2H]C([2H])([2H])Oc1ncnc(C2CC2)c1-c1ncc(OC)c(N(C)CC23CCC(c4nc(C(F)(F)F)cn4C)(CC2)CC3)n1` [Example S9, 4'-Cyclopropyl-5-methoxy-6'-(methoxy-D3)-N-methyl-N-((4-(1-methyl-4-(trifluoromethyl)-1H-imidazol-2-yl)bicyclo[2.2.2]oct-1-yl)methyl)-[2,5'-bipyrimidin]-4-amine], 3.5 nM; as for `COc1cnc(-c2c(OC)ncnc2C2CC2)nc1N(C)CC12CCC(c3nc(C(F)(F)F)cn3C)(CC1)OC2` [Example S10, 4'-Cyclopropyl-5,6'-dimethoxy-N-methyl-N-((1-(1-methyl-4-(trifluoromethyl)-1H-imidazol-2-yl)-2-oxabicyclo[2.2.2]oct-4-yl)methyl)-[2,5'-bipyrimidin]-4-amine], 19 nM. As for `COc1cnc(-c2c(Cl)cnn2C(C)C)nc1NCC12CCC(c3nc(C(F)(F)F)cn3C3CCC3)(CC1)OC2` [Example S11, 2-(4-Chloro-1-isopropyl-1H-pyrazol-5-yl)-N-((1-(1-cyclobutyl-4-(trifluoromethyl)-1H-imidazol-2-yl)-2-oxabicyclo[2.2.2]oct-4-yl)methyl)-5-methoxypyrimidin-4-amine], the figure is 6.1 nM; as for `COc1cnc(-c2c(C)ncnc2OC2CC2)nc1NCC12CCC(c3nc(C(F)(F)F)cn3C)(CC1)CC2` [Example S19], 300 nM.

Values taken from patent EP4741386A1 (Jiangsu Yahong Meditech Co., Ltd., priority 2023, dated 2025).
